In patent publication US20070082883A1, “HIV protease inhibitors” (THE BOARD OF TRUSTEES OF THE UNIVERSITY OF ILLINOIS, priority 2002, published 2007):
pIC50, pKi: −log10 of the molar value.

Each compound was assayed against T1, HIV-1 protease (Human immunodeficiency virus type 1 group M subtype B, UniProt P04585) (assay: HIV-1 Protease Inhibition Assay). Settings: cells marked (pM) in a column headed nM.
T1 construct: made in house; host or cells: E. coli BL21 (dE3)pLysS, pET30a vector
Format: biochemical
From the text: Assays of the dose-response effect of inhibitor compounds can be described as a curve expressing a degree of inhibition as a function of concentration. The curve theoretically passes through a point at which the concentration is sufficient to reduce activity of the HIV protease enzyme to a level that is 50% that of the difference between minimal and maximal enzyme activity in the assay.
HIV-1 Protease Inhibition Assay
The HIV-1 protease gene was subcloned into the pET30a vector (Novagen) and then transformed into BL21 (dE3)pLysS cells for protein expression. Protein expression and purification were followed according to Tang's procedure (Hong et al., Biochemistry, 1996, 35, 10627-10633). […] The inclusion body containing some bacterial proteins was thoroughly washed by using TRITON X-100, solubilized in […] and passed through the Q-sepharose column to remove the bacterial proteins which interfered with subsequent refolding steps. HIV-1 protease was refolded from the urea to an active form by dialysis. As a final step, gel filtration chromatography was used to remove impurities after refolding. Activities of purified HIV-1 protease were examined using a fluorogenic substrate, 2-aminobenzoyl-Thr-Ile-Nle-Phe(pNO2)-Gln-Arg-NH2 (Novabiochem). […] In the condition of So<<Km, v=Eo(kcat/Km)So, where Eo is the total enzyme concentration, and So is the substrate concentrate. […] Assays are carried out as described by Toth and Marshall (Toth et al., Int. J. Pept. Protein Res., 1990, 36, 544-50).
In the case of `COc1ccc(S(=O)(=O)N(C[C@@H]2CCC(=O)N2)C[C@@H](O)[C@H](Cc2ccccc2)NC(=O)OC2CO[C@H]3OCC[C@@H]23)cc1` (some centres unmarked) [Compound 283], the IC50 was 14 pM.

Same assay, conditions: fluorogenic substrate assay
In the case of `CC(C)CN(C[C@@H](O)[C@H](Cc1ccccc1)NC(=O)OC1CC2CCO[C@@H]2C1)S(=O)(=O)c1ccc(C=NO)cc1` (some centres unmarked) [Compound 128], the pIC50 was 8.77 and the pKi was 9.28.
`C=CCCCCOc1cccc(S(=O)(=O)N(CCCCC=C)C[C@@H](O)[C@H](Cc2ccccc2)NC(=O)O[C@H]2CO[C@H]3OCCC32)c1` (some centres unmarked) [Compound 225c] gave a pIC50 of 8.07 and a pKi of 8.59.
`CC(C)CN(C[C@@H](O)[C@H](Cc1ccccc1)NC(=O)OC1CO[C@H]2OCCC12)S(=O)(=O)c1ccc(/C=C/CO)cc1` (some centres unmarked) [Compound 121] was tested, and the pIC50 was 8.52.
Work on `CC(C)CN(C[C@@H](O)[C@H](Cc1ccccc1)NC(=O)O[C@H]1C[C@H]2CCO[C@H]2C1)S(=O)(=O)c1cncc(N)c1` [Compound 172] yielded a pIC50 of 8.29 and a pKi of 8.80.
In the case of `CC(C)CN(C[C@@H](O)[C@H](Cc1ccccc1)NC(=O)OC(C)(C)C)C1CC2(CCCC2)NC1=O` (some centres unmarked) [Compound 528b], the pIC50 was 6.41.
`Cc1ccc(S(=O)(=O)N(CC(C)C)C[C@@H](O)[C@H](CC2CCN(C(=O)c3ccccc3)CC2)NC(=O)OC2CO[C@H]3OCCC23)cc1` (some centres unmarked) [Compound 146] gave a pIC50 of 8.74.
With `CC(C)(C)OC(=O)NN(C[C@@H](O)[C@H](Cc1ccccc1)NC(=O)O[C@@H]1CC2CCO[C@@H]2C1)S(=O)(=O)c1ccc(F)c(N)c1` (some centres unmarked) [Compound 191] the pIC50 was 8.02 and the pKi was 8.52.
`C=CCCCCN(C[C@@H](O)[C@H](Cc1ccccc1)NC(=O)O[C@H]1CO[C@H]2OCCC21)S(=O)(=O)c1cccc(OCCC=C)c1` (some centres unmarked) [Compound 232] showed a pIC50 of 8.27 and a pKi of 8.77.
`CC(C)(C)NC(=O)[C@@H]1C[C@@H]2CCCC[C@@H]2CN1C[C@@H](O)[C@H](Cc1ccccc1)NC(=O)O[C@H]1CCC2(CCCO2)C1` (some centres unmarked) [Compound 145a] showed a pIC50 of 6.30.
Work on `COc1ccc(S(=O)(=O)N(C[C@@H](O)[C@H](Cc2ccccc2)NC(=O)O[C@@H]2CO[C@@H]3OCC[C@@H]32)C2CN(C)C2)cc1` [Compound 202] yielded a pIC50 of 7.51 and a pKi of 8.01.
For `COc1ccc(S(=O)(=O)N(C[C@@H](O)[C@H](Cc2ccccc2)NC(=O)O[C@H]2CO[C@H]3OCCC32)C2CN(C(=O)OC(C)(C)C)C2)cc1` (some centres unmarked) [Compound 200], the pIC50 was 8.12 and the pKi was 8.64.
With `COCc1ccc(S(=O)(=O)N(CC(C)C)C[C@@H](O)[C@H](Cc2ccccc2)NC(=O)OC2CC3CCO[C@@H]3C2)cc1` (some centres unmarked) [Compound 130] the pIC50 was 9.10.
In the case of `CC(C)(C)NC(=O)[C@@H]1C[C@@H]2CCCC[C@@H]2CN1C[C@@H](O)[C@H](Cc1ccccc1)NC(=O)OC1CCCC12CCCO2` (single isomer, unassigned) [Compound 144], the pIC50 was 7.40.
For `O=C(N[C@@H](Cc1ccccc1)[C@H](O)CN1CCCC/C=C\CCOc2cccc(c2)S1(=O)=O)O[C@H]1CO[C@H]2OCCC21` (some centres unmarked) [Compound 233], the pIC50 was 8.06 and the pKi was 8.57.
In the case of `CC(C)CN(C[C@@H](O)[C@H](Cc1ccccc1)NC(=O)OC1CC2CCO[C@@H]2C1)S(=O)(=O)c1cncc(N)c1` (some centres unmarked) [Compound 168], the pIC50 was 8.60 and the pKi was 9.10.
In the case of `CC(C)(C)NC(=O)[C@@H]1C[C@@H]2CCCC[C@@H]2CN1C[C@@H](O)[C@H](Cc1ccccc1)NC(=O)OC1CC2CCO[C@@H]2C1` (some centres unmarked) [Compound 143], the pIC50 was 8.52.
In the case of `Cc1ccc(S(=O)(=O)N(C[C@@H](O)[C@H](Cc2ccccc2)NC(=O)OC2CO[C@H]3OCCC23)C2CCOC2)cc1CO` (some centres unmarked) [Compound 161], the pIC50 was 8.70 and the pKi was 8.80.
For `O=C(N[C@@H](Cc1ccccc1)[C@H](O)CN1CCCCCCCCCCOc2cccc(c2)S1(=O)=O)O[C@@H]1CC2CCO[C@@H]2C1` (some centres unmarked) [Compound 236], the pIC50 was 7.96 and the pKi was 8.47.
Work on `Cc1ccc(S(=O)(=O)N(CC(C)C)C[C@@H](O)[C@H](Cc2ccccc2)NC(=O)OC2CO[C@H]3OCCC23)cc1CO` (some centres unmarked) [Compound 156] yielded a pIC50 of 8.51 and a pKi of 9.01.
`CN(C)CCN(C[C@@H](O)[C@H](Cc1ccccc1)NC(=O)OC1CC2CCO[C@@H]2C1)S(=O)(=O)c1ccc(F)c(N)c1` (some centres unmarked) [Compound 180] was tested, and the pIC50 was 5.82 and the pKi was 6.33.
`CC(C)CN(C[C@@H](O)[C@H](Cc1ccccc1)NC(=O)OC1CO[C@H]2OCC[C@@H]12)C1CC(C)(C)NC1=O` (some centres unmarked) [Compound 269] showed a pIC50 of 8.47.
With `CC(C)(C)NC(=O)[C@@H]1C[C@@H]2CCCC[C@@H]2CN1C[C@@H](O)[C@H](Cc1ccccc1)NC(=O)OC1CC[C@@]2(CCCO2)C1` (some centres unmarked) [Compound 145b] the pIC50 was under 5.70.
In the case of `Cc1ccc(S(=O)(=O)N(CC(C)C)C[C@@H](O)[C@H](CC2CCN(Cc3ccccc3)CC2)NC(=O)OC2CO[C@H]3OCCC23)cc1` (some centres unmarked) [Compound 149], the pIC50 was 7.70.
`CC(C)CN(C[C@@H](O)[C@H](Cc1ccccc1)NC(=O)OC1CC2CCO[C@@H]2C1)S(=O)(=O)c1ccc(OC2CCCCO2)c(OC2CCCCO2)c1` (some centres unmarked) [Compound 87] showed a pIC50 of 7.52 and a pKi of 8.03.
In the case of `C=CCCCCOc1cccc(S(=O)(=O)N(CCCCC=C)C[C@@H](O)[C@H](Cc2ccccc2)NC(=O)O[C@@H]2CC3CCO[C@@H]3C2)c1` (some centres unmarked) [Compound 225i], the pIC50 was 7.77 and the pKi was 8.28.
`Cc1ccc(S(=O)(=O)N(CC(C)C)C[C@@H](O)[C@H](CC2CCN(C(=O)c3ccccc3)CC2)NC(=O)O[C@H]2CCOC2)cc1` [Compound 147] showed a pIC50 of 7.22.
`CC(C)CN(C[C@@H](O)[C@H](Cc1ccccc1)NC(=O)OC1CO[C@H]2OCCC12)S(=O)(=O)c1cncc(N)c1` (some centres unmarked) [Compound 166] showed a pIC50 of 9.04 and a pKi of 9.55.
With `O=C1CC[C@@H](CN(C[C@@H](O)[C@H](Cc2ccccc2)NC(=O)OC2CO[C@H]3OCC[C@@H]23)S(=O)(=O)c2ccc([N+](=O)[O-])cc2)N1` (some centres unmarked) [Compound 275] the pIC50 was 9.43.
Work on `COc1ccc(S(=O)(=O)N(CC(C)C)C[C@H](O)[C@H](Cc2ccc(OCc3ccccc3)cc2)NC(=O)OC(C)(C)C)cc1` [Compound 209] yielded a pIC50 of 7.52 and a pKi of 8.03.
`O=C1CC[C@H](CN(C[C@@H](O)[C@H](Cc2ccccc2)NC(=O)OC2CC[C@H]3OCC[C@@H]23)S(=O)(=O)c2ccc([N+](=O)[O-])cc2)N1` (some centres unmarked) [Compound 279] was tested, and the pIC50 was 9.47.
`O=C1CC[C@H](CN(C[C@@H](O)[C@H](Cc2ccccc2)NC(=O)OC2CO[C@H]3OCC[C@@H]23)S(=O)(=O)c2ccc([N+](=O)[O-])cc2)N1` (some centres unmarked) [Compound 274] gave a pIC50 of 10.00.
In the case of `O=C(N[C@@H](Cc1ccccc1)[C@H](O)CN1CCCCCCCOc2cccc(c2)S1(=O)=O)O[C@@H]1CC2CCO[C@@H]2C1` (some centres unmarked) [Compound 225h], the pIC50 was 8.17 and the pKi was 8.68.
`Cc1ccc(S(=O)(=O)N(CCN(C)C)C[C@@H](O)[C@H](Cc2ccccc2)NC(=O)OC2CO[C@H]3OCCC23)cc1CO` (some centres unmarked) [Compound 158] gave a pIC50 of 6.98 and a pKi of 7.49.
Work on `COc1ccc(S(=O)(=O)N(CC(C)C)C[C@@H](O)[C@H](Cc2ccc(OCc3ccccc3)cc2)NC(=O)OC(C)(C)C)cc1` [Compound 207] yielded a pIC50 of 7.02 and a pKi of 7.52.
`CC(C)CN(C[C@@H](O)[C@H](Cc1ccccc1)NC(=O)OC1CC2CCO[C@@H]2C1)S(=O)(=O)c1ccc(F)c(N)c1` (some centres unmarked) [Compound 179] gave a pIC50 of 8.19 and a pKi of 8.70.
`Cc1ccc(S(=O)(=O)N(CC(C)C)C[C@@H](O)[C@H](Cc2ccccc2)NC(=O)OC2CC3CCO[C@@H]3C2)cc1` (some centres unmarked) [Compound 131] gave a pIC50 of 8.85.
`CC(C)CN(C[C@@H](O)[C@H](Cc1ccccc1)NC(=O)OC(C)(C)C)S(=O)(=O)c1cncc(N)c1` [Compound 164] gave a pIC50 of 7.48 and a pKi of 8.00.
For `COc1ccc(S(=O)(=O)N(CC(C)C)CC(O)C(Cc2ccc(OCc3ccccc3)cc2)NC(=O)OC(C)(C)C)cc1` (centres unmarked) [Compound 210], the pIC50 was 7.89 and the pKi was 8.39.
For `CC(C)CN(C[C@@H](O)[C@H](Cc1ccccc1)NC(=O)OC1CC2CCO[C@@H]2C1)S(=O)(=O)c1cccc(O)c1` (some centres unmarked) [Compound 79], the pIC50 was 8.26 and the pKi was 8.77.
`O=C(N[C@@H](Cc1ccccc1)[C@H](O)CN1CCCC/C=C/CCCOc2cccc(c2)S1(=O)=O)O[C@H]1CO[C@H]2OCCC21` (some centres unmarked) [Compound 225a] gave a pIC50 of 8.11 and a pKi of 8.62.
`CC(C)CN(C[C@@H](O)[C@H](Cc1ccccc1)NC(=O)O[C@H]1CCOC1)S(=O)(=O)c1ccc(F)c([N+](=O)[O-])c1` [Compound 181] gave a pIC50 of 6.84 and a pKi of 7.35.
Compound `COc1ccc(S(=O)(=O)NN(CC(C)C)C[C@@H](O)[C@H](Cc2ccccc2)NC(=O)O[C@@H]2CC3CCO[C@@H]3C2)cc1` (some centres unmarked) [Compound 186] has a pIC50 of 8.00 and a pKi of 8.49.
Compound `O=C(N[C@@H](Cc1ccccc1)[C@H](O)CN(CCN1CCOCC1)S(=O)(=O)c1ccc(Cl)c(O)c1)OC1CO[C@H]2OCCC12` (some centres unmarked) [Compound 154] has a pIC50 of 7.60 and a pKi of 8.11.
With `CC(C)CN(C[C@@H](O)[C@H](Cc1ccccc1)NC(=O)OC1CC2CCO[C@@H]2C1)S(=O)(=O)c1cccc(CO)c1` (some centres unmarked) [Compound 113] the pIC50 was 8.40.
Work on `C=CCCCCN(C[C@@H](O)[C@H](Cc1ccccc1)NC(=O)O[C@H]1CO[C@H]2OCCC21)S(=O)(=O)c1cccc(OCC=C)c1` (some centres unmarked) [Compound 229] yielded a pIC50 of 8.04 and a pKi of 8.68.
In the case of `COc1ccc(S(=O)(=O)N(C[C@@H](O)[C@H](Cc2ccccc2)NC(=O)O[C@@H]2CC3CCO[C@@H]3C2)C2CN(C)C2)cc1` (some centres unmarked) [Compound 204], the pIC50 was 8.25 and the pKi was 8.77.
